Assay results: ChEMBL document CHEMBL1154710, “Synthesis, anti-inflammatory and anticancer activity evaluation of some novel acridine derivatives” (2010)

Tests used:
Type in all cases: functional
Rattus norvegicus = assay: Antiinflammatory activity in albino Charles-Foster rat assessed as inhibition of carrageenan-induced paw oedema at 50 mg/kg, po administered 30 mins before carrageenan challenge […] after 1-3 hrs relative to control; set-up: scale not given: the % may be the effect or the level left
MCF7 = assay: Growth inhibition of human MCF7 cells at 10 uM after 48 hrs by SRB assay; conditions: MCF7, 48 h, read-out: GI
DU-145 = assay: Growth inhibition of human DU145 cells at 10 uM after 48 hrs by SRB assay; conditions: DU-145, 48 h, read-out: GI
OVCAR-5 = assay: Growth inhibition of human OVCAR5 cells at 10 uM after 48 hrs by SRB assay; conditions: OVCAR-5, 48 h, read-out: GI
PC-3 = assay: Growth inhibition of human PC3 cells at 10 uM after 48 hrs by SRB assay; conditions: PC-3, 48 h, read-out: GI
HEp-2 = assay: Growth inhibition of human Hep2 cells at 10 uM after 48 hrs by SRB assay; conditions: HEp-2, 48 h, read-out: GI
COLO 205 = assay: Growth inhibition of human COLO205 cells at 10 uM after 48 hrs by SRB assay; conditions: COLO 205, 48 h, read-out: GI
HCT-15 = assay: Growth inhibition of human HCT15 cells at 10 uM after 48 hrs by SRB assay; conditions: HCT-15, 48 h, read-out: GI
[1] = Growth inhibition of human 502713 cells at 10 uM after 48 hrs by SRB assay; conditions: Homo sapiens, 502713, 48 h; read-out: GI
IMR-32 = assay: Growth inhibition of human IMR32 cells at 10 uM after 48 hrs by SRB assay; conditions: IMR-32, 48 h, read-out: GI
A549 = assay: Growth inhibition of human A549 cells at 10 uM after 48 hrs by SRB assay; conditions: A549, 48 h, read-out: GI

SMILES | Activity (Rattus norvegicus) [%] | inhibition of growth at 10 µM (MCF7) [%] | inhibition of growth at 10 µM (DU-145) [%] | inhibition of growth at 10 µM (OVCAR-5) [%] | inhibition of growth at 10 µM (PC-3) [%] | inhibition of growth at 10 µM (HEp-2) [%] | inhibition of growth at 10 µM (COLO 205) [%] | inhibition of growth at 10 µM (HCT-15) [%] | inhibition of growth at 10 µM [1] [%] | inhibition of growth at 10 µM (IMR-32) [%] | inhibition of growth at 10 µM (A549) [%]
Cc1cccc2c(NCC3CCCO3)c3ccccc3nc12 (racemic) | 34.02 | 45 | 17 | 54 | 61 | 18 | 46 | – | – | – | –
O=c1[nH]cc(F)c(=O)[nH]1 [FLUOROURACIL] | – | 0 | – | – | – | 29 | 25 | 29 | 40 | 58 | 0
Cc1cccc2c(NCCc3cccs3)c3ccccc3nc12 | 33.09 | 73 | 41 | 6 | 52 | 41 | 79 | – | – | – | –
COc1ccc2nc3ccccc3c(NCCc3cccs3)c2c1 | 41.17 | 44 | – | – | – | 52 | 69 | 78 | 67 | 89 | 20
COc1ccc2nc3ccccc3c(NC(=S)NCC3CCCO3)c2c1 (racemic) | 29.57 | 8 | – | – | – | 8 | 20 | 41 | 21 | 27 | 24
COc1ccc2nc3ccccc3c(NC(=S)NCCc3cccs3)c2c1 | 34.08 | 34 | – | – | – | 28 | 35 | 45 | 46 | 74 | 42
CC(C)Cc1ccc(C(C)C(=O)O)cc1 (stereo unspecified) [IBUPROFEN] | 39 | – | – | – | – | – | – | – | – | – | –
CO[C@@]12[C@H](COC(N)=O)C3=C(C(=O)C(C)=C(N)C3=O)N1C[C@@H]1N[C@@H]12 [MITOMYCIN] | – | – | – | – | – | 58 | 4 | 25 | 44 | 85 | 40
Cc1cccc2c(NC(=S)NCCc3cccs3)c3ccccc3nc12 | 30.7 | 92 | – | – | – | 67 | 19 | – | 71 | 42 | 53
Cc1cccc2c(NCc3ccco3)c3ccccc3nc12 | 0 | 58 | – | – | – | 51 | 72 | 74 | 52 | 86 | 52
Cc1cccc2c(NCCc3c[nH]c4ccccc34)c3ccccc3nc12 | 31.03 | 53 | 42 | 51 | 53 | 23 | 69 | – | – | – | –
CC(=O)O[C@H]1C(=O)[C@@]2(C)[C@H]([C@H](OC(=O)c3ccccc3)[C@]3(O)C[C@H](OC(=O)[C@H](O)[C@@H](NC(=O)c4ccccc4)c4ccccc4)C(C)=C1C3(C)C)[C@]1(OC(C)=O)CO[C@@H]1C[C@@H]2O [PACLITAXEL] | – | 65 | – | – | – | 75 | 61 | 84 | 58 | 58 | 51
COc1ccc2nc3ccccc3c(NCC3CCCO3)c2c1 (racemic) | 20.16 | 42 | 9 | 41 | 37 | 11 | 61 | – | – | – | –
COc1ccc2nc3ccccc3c(NCc3ccco3)c2c1 | 22.96 | 44 | – | – | – | 56 | 88 | 80 | 65 | 95 | 35
COc1cccc2c(NCc3ccco3)c3ccccc3nc12 | 38.37 | 50 | – | – | – | 54 | 83 | 71 | 62 | 98 | 36
Cc1cccc2c(NC(=S)NCCc3c[nH]c4ccccc34)c3ccccc3nc12 | 35.77 | 95 | – | – | – | 96 | 98 | – | 90 | 67 | 84
COc1ccc2nc3ccccc3c(NC(=S)NCc3ccco3)c2c1 | 30.98 | 35 | – | – | – | 26 | 23 | 61 | 45 | 71 | 37
Cc1cccc2c(NC(=S)NCc3ccco3)c3ccccc3nc12 | 32.33 | 94 | – | – | – | 61 | 88 | – | 95 | 5 | 46
Cc1cccc2c(NC(=S)NCC3CCCO3)c3ccccc3nc12 (racemic) | 25.35 | 99 | – | – | – | 14 | 71 | – | 95 | 21 | 96
COc1cccc2c1C(=O)c1c(O)c3c(c(O)c1C2=O)C[C@@](O)(C(=O)CO)C[C@@H]3O[C@H]1C[C@H](N)[C@H](O)[C@H](C)O1 [DOXORUBICIN] | – | 48 | – | – | – | 55 | 34 | 93 | 28 | 86 | 44
COc1cccc2c(NCC3CCCO3)c3ccccc3nc12 (racemic) | 0 | 52 | – | – | – | 34 | 66 | 64 | 60 | 69 | 56
COc1ccc2nc3ccccc3c(NCCc3c[nH]c4ccccc34)c2c1 | 31.33 | 42 | 25 | 23 | 51 | 9 | 0 | – | – | – | –
COc1cccc2c(NCCc3cccs3)c3ccccc3nc12 | 26.05 | 37 | – | – | – | 62 | 24 | 73 | 67 | 78 | 61
COc1cccc2c(NCCc3c[nH]c4ccccc34)c3ccccc3nc12 | 39.69 | 78 | – | – | – | 75 | 84 | 91 | 63 | 99 | 49
